Test results reported in PubChem BioAssay (NCI).
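Growth conditions: 96-well plates. Treatment: test compound, 48 hours, 5 concentrations. Analysis: linear interpolation between bracketing concentrations; unreached endpoints set to highest concentration. Abbreviation: GI50, concentration required for 50% inhibition of growth. TGI denotes the concentration required for complete inhibition of growth.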

Legend:
Experiment in all cases: NCI-60 cell line screen, 48 h
BT-549 breast = tested on: BT-549 breast
IGROV1 ovarian = tested on: IGROV1 ovarian
786-0 renal = tested on: 786-0 renal
SN12C renal = tested on: SN12C renal
OVCAR-5 ovarian = tested on: OVCAR-5 ovarian
HCT-116 colon = tested on: HCT-116 colon
SK-MEL-5 melanoma = tested on: SK-MEL-5 melanoma
NCI/ADR-RES ovarian = tested on: NCI/ADR-RES ovarian
MDA-MB-231 breast = tested on: MDA-MB-231 breast
KM12 colon = tested on: KM12 colon
SF-268 CNS = tested on: SF-268 CNS
UACC-62 melanoma = tested on: UACC-62 melanoma
HCC-2998 colon = tested on: HCC-2998 colon
U251 CNS = tested on: U251 CNS
NCI-H460 lung = tested on: NCI-H460 lung
OVCAR-8 ovarian = tested on: OVCAR-8 ovarian
DU-145 prostate = tested on: DU-145 prostate
SF-295 CNS = tested on: SF-295 CNS
SR leukemia = tested on: SR leukemia
A549 NSCLC = tested on: A549 NSCLC
NCI-H226 lung = tested on: NCI-H226 lung
M14 melanoma = tested on: M14 melanoma
SW-620 colon = tested on: SW-620 colon
SF-539 CNS = tested on: SF-539 CNS
SK-MEL-28 melanoma = tested on: SK-MEL-28 melanoma
MOLT-4 leukemia = tested on: MOLT-4 leukemia
HT29 colon = tested on: HT29 colon
SK-OV-3 ovarian = tested on: SK-OV-3 ovarian
HS 578T breast = tested on: HS 578T breast
SNB-19 CNS = tested on: SNB-19 CNS
CAKI-1 renal = tested on: CAKI-1 renal
UO-31 renal = tested on: UO-31 renal
UACC-257 melanoma = tested on: UACC-257 melanoma
PC-3 prostate = tested on: PC-3 prostate
NCI-H23 lung = tested on: NCI-H23 lung
SNB-75 CNS = tested on: SNB-75 CNS
COLO 205 colon = tested on: COLO 205 colon
LOX IMVI melanoma = tested on: LOX IMVI melanoma
HOP-62 NSCLC = tested on: HOP-62 NSCLC
OVCAR-3 ovarian = tested on: OVCAR-3 ovarian
NCI-H522 lung = tested on: NCI-H522 lung
CCRF-CEM leukemia = tested on: CCRF-CEM leukemia
A498 renal = tested on: A498 renal
TK-10 renal = tested on: TK-10 renal
RXF 393 renal = tested on: RXF 393 renal
HCT-15 colon = tested on: HCT-15 colon
T-47D breast = tested on: T-47D breast
ACHN renal = tested on: ACHN renal
HL-60(TB) leukemia = tested on: HL-60(TB) leukemia
MCF7 breast = tested on: MCF7 breast
MALME-3M melanoma = tested on: MALME-3M melanoma
K-562 leukemia = tested on: K-562 leukemia
MDA-MB-435 = tested on: MDA-MB-435
EKVX NSCLC = tested on: EKVX NSCLC
RPMI-8226 leukemia = tested on: RPMI-8226 leukemia
SK-MEL-2 melanoma = tested on: SK-MEL-2 melanoma
HOP-92 NSCLC = tested on: HOP-92 NSCLC
OVCAR-4 ovarian = tested on: OVCAR-4 ovarian

Molecule `N#Cc1c(Br)n(C2OC(CO)C(O)C2O)c2ncn3ccnc3c12` (stereo unspecified) has a GI50 (BT-549 breast) greater than 100 µM, a TGI (BT-549 breast) greater than 100 µM and a GI50 (IGROV1 ovarian) of 81.9 µM. It also gave a TGI (IGROV1 ovarian) greater than 100 µM, a GI50 (786-0 renal) greater than 100 µM and a TGI (786-0 renal) greater than 100 µM. It also gave a GI50 (SN12C renal) greater than 100 µM, a TGI (SN12C renal) greater than 100 µM and a GI50 (OVCAR-5 ovarian) greater than 100 µM. For the same molecule, the TGI (OVCAR-5 ovarian) was greater than 100 µM, the GI50 (HCT-116 colon) was 46.8 µM and the TGI (HCT-116 colon) was greater than 100 µM. The GI50 (SK-MEL-5 melanoma) was 64 µM, the TGI (SK-MEL-5 melanoma) was greater than 100 µM and the GI50 (NCI/ADR-RES ovarian) was greater than 100 µM. It also gave a TGI (NCI/ADR-RES ovarian) greater than 100 µM, a GI50 (MDA-MB-231 breast) greater than 100 µM and a TGI (MDA-MB-231 breast) greater than 100 µM. For the same molecule, the GI50 (KM12 colon) was greater than 100 µM, the TGI (KM12 colon) was greater than 100 µM and the GI50 (SF-268 CNS) was 58 µM. The TGI (SF-268 CNS) was greater than 100 µM, the GI50 (UACC-62 melanoma) was greater than 100 µM and the TGI (UACC-62 melanoma) was greater than 100 µM. It also gave a GI50 (HCC-2998 colon) greater than 100 µM, a TGI (HCC-2998 colon) greater than 100 µM and a GI50 (U251 CNS) greater than 100 µM. For the same molecule, the TGI (U251 CNS) was greater than 100 µM, the GI50 (NCI-H460 lung) was 40.7 µM and the TGI (NCI-H460 lung) was greater than 100 µM. For the same molecule, the GI50 (OVCAR-8 ovarian) was 52.3 µM, the TGI (OVCAR-8 ovarian) was greater than 100 µM and the GI50 (DU-145 prostate) was 69.5 µM. It also gave a TGI (DU-145 prostate) greater than 100 µM, a GI50 (SF-295 CNS) greater than 100 µM and a TGI (SF-295 CNS) greater than 100 µM. It also gave a GI50 (SR leukemia) of 50.7 µM, a TGI (SR leukemia) greater than 100 µM and a GI50 (A549 NSCLC) greater than 100 µM. It also gave a TGI (A549 NSCLC) greater than 100 µM, a GI50 (NCI-H226 lung) of 40.6 µM and a TGI (NCI-H226 lung) greater than 100 µM. It also gave a GI50 (M14 melanoma) greater than 100 µM, a TGI (M14 melanoma) greater than 100 µM and a GI50 (SW-620 colon) of 44.1 µM. It also gave a TGI (SW-620 colon) greater than 100 µM, a GI50 (SF-539 CNS) greater than 100 µM and a TGI (SF-539 CNS) greater than 100 µM. The GI50 (SK-MEL-28 melanoma) was greater than 100 µM, the TGI (SK-MEL-28 melanoma) was greater than 100 µM and the GI50 (MOLT-4 leukemia) was 41.9 µM. For the same molecule, the TGI (MOLT-4 leukemia) was greater than 100 µM, the GI50 (HT29 colon) was 65.3 µM and the TGI (HT29 colon) was greater than 100 µM. The GI50 (SK-OV-3 ovarian) was greater than 100 µM, the TGI (SK-OV-3 ovarian) was greater than 100 µM and the GI50 (HS 578T breast) was greater than 100 µM. The TGI (HS 578T breast) was greater than 100 µM, the GI50 (SNB-19 CNS) was greater than 100 µM and the TGI (SNB-19 CNS) was greater than 100 µM. It also gave a GI50 (CAKI-1 renal) greater than 100 µM, a TGI (CAKI-1 renal) greater than 100 µM and a GI50 (UO-31 renal) of 53.6 µM. The TGI (UO-31 renal) was greater than 100 µM, the GI50 (UACC-257 melanoma) was greater than 100 µM and the TGI (UACC-257 melanoma) was greater than 100 µM. It also gave a GI50 (PC-3 prostate) of 63.8 µM, a TGI (PC-3 prostate) greater than 100 µM and a GI50 (NCI-H23 lung) greater than 100 µM. The TGI (NCI-H23 lung) was greater than 100 µM, the GI50 (SNB-75 CNS) was greater than 100 µM and the TGI (SNB-75 CNS) was greater than 100 µM. For the same molecule, the GI50 (COLO 205 colon) was 55.1 µM, the TGI (COLO 205 colon) was greater than 100 µM and the GI50 (LOX IMVI melanoma) was 60.1 µM. For the same molecule, the TGI (LOX IMVI melanoma) was greater than 100 µM, the GI50 (HOP-62 NSCLC) was greater than 100 µM and the TGI (HOP-62 NSCLC) was greater than 100 µM. For the same molecule, the GI50 (OVCAR-3 ovarian) was greater than 100 µM, the TGI (OVCAR-3 ovarian) was greater than 100 µM and the GI50 (NCI-H522 lung) was greater than 100 µM. The TGI (NCI-H522 lung) was greater than 100 µM, the GI50 (CCRF-CEM leukemia) was greater than 100 µM and the TGI (CCRF-CEM leukemia) was greater than 100 µM. The GI50 (A498 renal) was 19.9 µM, the TGI (A498 renal) was greater than 100 µM and the GI50 (TK-10 renal) was greater than 100 µM. It also gave a TGI (TK-10 renal) greater than 100 µM, a GI50 (RXF 393 renal) of 86.7 µM and a TGI (RXF 393 renal) greater than 100 µM. For the same molecule, the GI50 (HCT-15 colon) was greater than 100 µM, the TGI (HCT-15 colon) was greater than 100 µM and the GI50 (T-47D breast) was greater than 100 µM. The TGI (T-47D breast) was greater than 100 µM, the GI50 (ACHN renal) was 57.6 µM and the TGI (ACHN renal) was greater than 100 µM. The GI50 (HL-60(TB) leukemia) was greater than 100 µM, the TGI (HL-60(TB) leukemia) was greater than 100 µM and the GI50 (MCF7 breast) was greater than 100 µM. The TGI (MCF7 breast) was greater than 100 µM, the GI50 (MALME-3M melanoma) was greater than 100 µM and the TGI (MALME-3M melanoma) was greater than 100 µM. It also gave a GI50 (K-562 leukemia) of 62.4 µM, a TGI (K-562 leukemia) greater than 100 µM and a GI50 (MDA-MB-435) greater than 100 µM. For the same molecule, the TGI (MDA-MB-435) was greater than 100 µM, the GI50 (EKVX NSCLC) was greater than 100 µM and the TGI (EKVX NSCLC) was greater than 100 µM. For the same molecule, the GI50 (RPMI-8226 leukemia) was greater than 100 µM and the TGI (RPMI-8226 leukemia) was greater than 100 µM.
With `COc1nc(Cl)nc(Cl)c1Cl` (tested in a mixture with another compound) the TGI (BT-549 breast) was 22.5 µM, the TGI (IGROV1 ovarian) was 26.2 µM and the TGI (786-0 renal) was greater than 46.7 µM. It also gave a TGI (SN12C renal) of 51.6 µM, a TGI (OVCAR-5 ovarian) of 49.9 µM and a TGI (HCT-116 colon) of 19.5 µM. For the same molecule, the TGI (SK-MEL-5 melanoma) was 31.5 µM, the TGI (SK-MEL-2 melanoma) was 22.6 µM and the TGI (NCI/ADR-RES ovarian) was greater than 27.7 µM. For the same molecule, the TGI (HOP-92 NSCLC) was 14.9 µM, the TGI (MDA-MB-231 breast) was greater than 39.1 µM and the TGI (SF-268 CNS) was greater than 31.7 µM. The TGI (UACC-62 melanoma) was 28.6 µM, the TGI (HCC-2998 colon) was 0.672 µM and the TGI (U251 CNS) was 23 µM. For the same molecule, the TGI (NCI-H460 lung) was 12.1 µM, the TGI (OVCAR-8 ovarian) was greater than 30.8 µM and the TGI (OVCAR-4 ovarian) was 14.1 µM. For the same molecule, the TGI (DU-145 prostate) was 15.5 µM, the TGI (SF-295 CNS) was 36.3 µM and the TGI (SR leukemia) was 4.65 µM. For the same molecule, the TGI (A549 NSCLC) was greater than 66 µM, the TGI (NCI-H226 lung) was 77 µM and the TGI (M14 melanoma) was 27.6 µM. For the same molecule, the TGI (SW-620 colon) was 20.8 µM, the TGI (SF-539 CNS) was 21.6 µM and the TGI (SK-MEL-28 melanoma) was 62.9 µM. The TGI (MOLT-4 leukemia) was 10.1 µM, the TGI (HT29 colon) was 17.9 µM and the TGI (SK-OV-3 ovarian) was 32.7 µM. It also gave a TGI (HS 578T breast) greater than 100 µM, a TGI (SNB-19 CNS) of 18.5 µM and a TGI (CAKI-1 renal) of 0.194 µM. For the same molecule, the TGI (UO-31 renal) was 1.94 µM, the TGI (UACC-257 melanoma) was 12 µM and the TGI (PC-3 prostate) was 26 µM. It also gave a TGI (NCI-H23 lung) of 20.8 µM, a TGI (SNB-75 CNS) greater than 61.4 µM and a TGI (COLO 205 colon) of 26.8 µM. The TGI (LOX IMVI melanoma) was 12.8 µM, the TGI (HOP-62 NSCLC) was 10.3 µM and the TGI (OVCAR-3 ovarian) was 12.4 µM. The TGI (NCI-H522 lung) was 1.55 µM, the TGI (CCRF-CEM leukemia) was 12.1 µM and the TGI (A498 renal) was 37.4 µM. The TGI (TK-10 renal) was 19 µM, the TGI (RXF 393 renal) was 31.7 µM and the TGI (HCT-15 colon) was 18.7 µM. The TGI (T-47D breast) was 44.4 µM, the TGI (ACHN renal) was 17.6 µM and the TGI (MCF7 breast) was 24.2 µM. The TGI (MALME-3M melanoma) was 47.3 µM, the TGI (K-562 leukemia) was 23.8 µM and the TGI (MDA-MB-435) was greater than 36.3 µM. The TGI (EKVX NSCLC) was 1.4 µM and the TGI (RPMI-8226 leukemia) was 5.61 µM.
